In the supplement of paper PMC13207355:
Where a name gives a salt, the structure may show the parent alone.

Columns and labels:
Conditions in all cases: exposure time: 72 h
[1] = test system: E34 (patient-derived glioblastoma stem cells of proneural subtype); assay: phenotypic distance (Euclidean, principal components) from DMSO controls (arbitrary units); higher = stronger morphological change
[2] = test system: E31 (patient-derived glioblastoma stem cells of proneural subtype); assay: as above
[3] = test system: E28 (patient-derived glioblastoma stem cells of classical subtype); assay: as above
[4] = test system: E21 (patient-derived glioblastoma stem cells of mesenchymal subtype); assay: as above
[5] = test system: E57 (patient-derived glioblastoma stem cells of mesenchymal subtype); assay: as above
[6] = test system: E13 (patient-derived glioblastoma stem cells of classical subtype); assay: as above
[7] = test system: FT3469 (normal neural stem cell line); assay: as above
[8] = test system: E34; assay: surviving fraction (nuclei count normalised to DMSO); higher = more cells surviving (less toxic)
[9] = test system: E31; assay: as above
[10] = test system: E28; assay: as above
[11] = test system: E21; assay: as above
[12] = test system: E57; assay: as above
[13] = test system: E13; assay: as above
[14] = test system: FT3469; assay: as above
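Wherever phenotypic distance (Euclidean, principal components) from DMSO controls is given: cell Painting imaging in 384-well plates, CellProfiler features reduced to at least 20 principal components, Euclidean distance versus same-plate DMSO vehicle wells (0.1% v/v), median over six images per well.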
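Wherever surviving fraction (nuclei count normalised to DMSO) is given: nuclei counted by high-content imaging of Hoechst-stained cells in laminin-coated 384-well plates, relative to 0.1% DMSO vehicle wells, with staurosporine as cell-death control.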

Question: Which results are given for `CC(C)NCC(O)COc1cccc2ccccc12` (stereo not drawn) [Propranolol hydrochloride]?
Answer: phenotypic distance ([1]; 4.1 nM): 0.622; phenotypic distance ([1]; 12.3 nM): 0.866; phenotypic distance ([1]; 37 nM): 0.551; phenotypic distance ([1]; 111.1 nM): 0.616; phenotypic distance ([1]; 333.3 nM): 0.597; phenotypic distance ([1]; 1000 nM): 0.71; phenotypic distance ([1]; 3000 nM): 0.686; phenotypic distance ([2]; 4.1 nM): 0.541; phenotypic distance ([2]; 12.3 nM): 0.694; phenotypic distance ([2]; 37 nM): 0.736; phenotypic distance ([2]; 111.1 nM): 0.802; phenotypic distance ([2]; 333.3 nM): 0.203; phenotypic distance ([2]; 1000 nM): 0.509; phenotypic distance ([2]; 3000 nM): 0.646; phenotypic distance ([3]; 4.1 nM): 0.642; phenotypic distance ([3]; 12.3 nM): 0.425; phenotypic distance ([3]; 37 nM): 0.914; phenotypic distance ([3]; 111.1 nM): 0.692; phenotypic distance ([3]; 333.3 nM): 0.687; phenotypic distance ([3]; 1000 nM): 0.509; phenotypic distance ([3]; 3000 nM): 0.633; phenotypic distance ([4]; 4.1 nM): 0.729; phenotypic distance ([4]; 12.3 nM): 0.784; phenotypic distance ([4]; 37 nM): 0.999; phenotypic distance ([4]; 111.1 nM): 0.707; phenotypic distance ([4]; 333.3 nM): 0.864; phenotypic distance ([4]; 1000 nM): 0.673; phenotypic distance ([4]; 3000 nM): 0.713; phenotypic distance ([5]; 4.1 nM): 0.6; phenotypic distance ([5]; 12.3 nM): 1.04; phenotypic distance ([5]; 37 nM): 0.554; phenotypic distance ([5]; 111.1 nM): 0.801; phenotypic distance ([5]; 333.3 nM): 0.597; phenotypic distance ([5]; 1000 nM): 0.686; phenotypic distance ([5]; 3000 nM): 0.742; phenotypic distance ([6]; 4.1 nM): 0.572; phenotypic distance ([6]; 12.3 nM): 1.82; phenotypic distance ([6]; 37 nM): 0.661; phenotypic distance ([6]; 111.1 nM): 0.582; phenotypic distance ([6]; 333.3 nM): 0.522; phenotypic distance ([6]; 1000 nM): 0.547; phenotypic distance ([6]; 3000 nM): 0.516; phenotypic distance ([7]; 4.1 nM): 0.45; phenotypic distance ([7]; 12.3 nM): 0.575; phenotypic distance ([7]; 37 nM): 0.676; phenotypic distance ([7]; 111.1 nM): 0.814; phenotypic distance ([7]; 333.3 nM): 0.71; phenotypic distance ([7]; 1000 nM): 0.957; phenotypic distance ([7]; 3000 nM): 0.566; surviving fraction ([8]; 4.1 nM): 0.945; surviving fraction ([8]; 12.3 nM): 0.847; surviving fraction ([8]; 37 nM): 0.941; surviving fraction ([8]; 111.1 nM): 1.06; surviving fraction ([8]; 333.3 nM): 0.876; surviving fraction ([8]; 1000 nM): 1.1; surviving fraction ([8]; 3000 nM): 0.949; surviving fraction ([9]; 4.1 nM): 0.954; surviving fraction ([9]; 12.3 nM): 0.993; surviving fraction ([9]; 37 nM): 1.1; surviving fraction ([9]; 111.1 nM): 1.08; surviving fraction ([9]; 333.3 nM): 0.917; surviving fraction ([9]; 1000 nM): 0.96; surviving fraction ([9]; 3000 nM): 1.05; surviving fraction ([10]; 4.1 nM): 0.98; surviving fraction ([10]; 12.3 nM): 1.05; surviving fraction ([10]; 37 nM): 0.949; surviving fraction ([10]; 111.1 nM): 1.12; surviving fraction ([10]; 333.3 nM): 1.03; surviving fraction ([10]; 1000 nM): 1.13; surviving fraction ([10]; 3000 nM): 1.03; surviving fraction ([11]; 4.1 nM): 0.912; surviving fraction ([11]; 12.3 nM): 0.926; surviving fraction ([11]; 37 nM): 0.978; surviving fraction ([11]; 111.1 nM): 1.01; surviving fraction ([11]; 333.3 nM): 1.01; surviving fraction ([11]; 1000 nM): 1.1; surviving fraction ([11]; 3000 nM): 1; surviving fraction ([12]; 4.1 nM): 1.05; surviving fraction ([12]; 12.3 nM): 0.959; surviving fraction ([12]; 37 nM): 1.11; surviving fraction ([12]; 111.1 nM): 1.14; surviving fraction ([12]; 333.3 nM): 1.1; surviving fraction ([12]; 1000 nM): 1.09; surviving fraction ([12]; 3000 nM): 1.06; surviving fraction ([13]; 4.1 nM): 0.971; surviving fraction ([13]; 12.3 nM): 1.08; surviving fraction ([13]; 37 nM): 0.923; surviving fraction ([13]; 111.1 nM): 1.07; surviving fraction ([13]; 333.3 nM): 1.1; surviving fraction ([13]; 1000 nM): 1.03; surviving fraction ([13]; 3000 nM): 0.991; surviving fraction ([14]; 4.1 nM): 0.985; surviving fraction ([14]; 12.3 nM): 1.11; surviving fraction ([14]; 37 nM): 1.03; surviving fraction ([14]; 111.1 nM): 0.965; surviving fraction ([14]; 333.3 nM): 1.01; surviving fraction ([14]; 1000 nM): 1.24; surviving fraction ([14]; 3000 nM): 1.13
